The source made the active and inactive calls. No cut-off for these calls is given here.
Legend:
[1] = target: Rho-associated protein kinase 2 (Homo sapiens, UniProt O75116); test: Inhibition of N-terminal GST-tagged human recombinant wild type ROCK2 (1 to 553 residues) expressed in baculovirus-infected Sf21 cells by HTRF KinEASE assay
[2] = target: Rho-associated protein kinase 1 (Homo sapiens, UniProt Q13464); test: Inhibition of N-terminal GST-tagged human recombinant ROCK1 (17 to 535 residues) expressed in baculovirus-infected Sf9 cells by HTRF KinEASE assay
MDA-MB-231 = test: Cytotoxicity against human MDA-MB-231 cells assessed as reduction in cell viability incubated for 72 hrs by SRB assay; type: functional, cell-based; conditions: MDA-MB-231, 72 h
4T1 [3] = test: Cytotoxicity against mouse 4T1 cells assessed as reduction in cell viability; type: functional, cell-based
4T1 [4] = test: Antitumor immunity against mouse 4T1 cells implanted in Balb/c mouse assessed as increase in CD4+ T cells in tumor tissue at 50 mg/kg, po administered daily for 15 days by flow cytometry; type: functional, organism-based; conditions: time 15.0 day
4T1 [5] = test: Antitumor immunity against mouse 4T1 cells implanted in Balb/c mouse assessed as increase in CD3+ T cells in tumor tissue at 50 mg/kg, po administered daily for 15 days by flow cytometry; type: functional, organism-based; conditions: time 15.0 day
4T1 [6] = test: Antitumor immunity against mouse 4T1 cells implanted in Balb/c mouse assessed as increase in CD8+ T cells in tumor tissue at 50 mg/kg, po administered daily for 15 days by flow cytometry; type: functional, organism-based; conditions: time 15.0 day

Chain of Rho-associated protein kinase 2 (O75116 whole entry, the tested form may be a part): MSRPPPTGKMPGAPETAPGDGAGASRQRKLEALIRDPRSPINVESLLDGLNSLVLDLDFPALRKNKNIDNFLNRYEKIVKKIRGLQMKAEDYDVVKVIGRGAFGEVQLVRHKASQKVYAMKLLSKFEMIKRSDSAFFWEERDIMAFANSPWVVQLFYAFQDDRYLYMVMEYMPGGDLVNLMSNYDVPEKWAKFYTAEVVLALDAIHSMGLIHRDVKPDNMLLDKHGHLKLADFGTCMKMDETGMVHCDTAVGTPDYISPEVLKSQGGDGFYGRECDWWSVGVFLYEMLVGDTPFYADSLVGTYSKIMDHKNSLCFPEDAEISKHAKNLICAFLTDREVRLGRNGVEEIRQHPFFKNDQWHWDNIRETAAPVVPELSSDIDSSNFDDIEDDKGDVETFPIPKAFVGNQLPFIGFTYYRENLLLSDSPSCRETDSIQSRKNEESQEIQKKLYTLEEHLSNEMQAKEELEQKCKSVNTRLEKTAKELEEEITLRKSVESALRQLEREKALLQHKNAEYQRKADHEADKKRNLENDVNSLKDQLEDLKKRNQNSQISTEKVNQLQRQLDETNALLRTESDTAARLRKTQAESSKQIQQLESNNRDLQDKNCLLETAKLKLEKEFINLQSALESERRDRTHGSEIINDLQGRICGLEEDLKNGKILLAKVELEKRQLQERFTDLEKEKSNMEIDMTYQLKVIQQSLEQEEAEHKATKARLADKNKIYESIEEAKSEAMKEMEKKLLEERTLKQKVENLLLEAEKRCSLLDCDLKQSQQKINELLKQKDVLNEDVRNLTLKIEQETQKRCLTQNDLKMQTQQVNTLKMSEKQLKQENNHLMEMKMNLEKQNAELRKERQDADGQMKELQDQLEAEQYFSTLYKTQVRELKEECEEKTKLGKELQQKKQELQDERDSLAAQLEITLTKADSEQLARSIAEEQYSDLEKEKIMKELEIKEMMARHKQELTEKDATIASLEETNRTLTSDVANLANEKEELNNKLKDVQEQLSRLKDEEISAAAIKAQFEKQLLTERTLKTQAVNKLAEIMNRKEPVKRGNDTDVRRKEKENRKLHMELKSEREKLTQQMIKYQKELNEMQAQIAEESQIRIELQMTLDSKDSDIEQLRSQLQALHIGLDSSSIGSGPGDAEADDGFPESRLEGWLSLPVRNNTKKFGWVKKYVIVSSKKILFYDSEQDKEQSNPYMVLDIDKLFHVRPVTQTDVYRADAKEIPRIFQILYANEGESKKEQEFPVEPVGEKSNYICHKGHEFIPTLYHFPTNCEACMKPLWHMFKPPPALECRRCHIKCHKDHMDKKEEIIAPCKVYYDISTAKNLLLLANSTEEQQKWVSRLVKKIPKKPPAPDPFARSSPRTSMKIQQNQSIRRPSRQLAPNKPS

Q: Which IC50 [1] does the source give for `O=C(CCCCCCNC(=O)c1cc2cc(-c3ccncc3)ccc2s1)NO` here?
A: > 1000 nM

Q: What about the IC50 [2] of the same molecule?
A: > 1000 nM

Q: What about the IC50 (MDA-MB-231) of the same molecule?
A: 130 nM

Q: Which IC50 [1] does the source give for `COc1cccc(CNC(=O)c2cc3cc(-c4cccc5cnccc45)ccc3s2)c1` here?
A: > 1000 nM

Q: Which IC50 [1] does the source give for `O=C(CCCCCCCNC(=O)c1cc2cc(-c3ccncc3)ccc2s1)NO` here?
A: > 1000 nM

Q: What about the IC50 [2] of the same molecule?
A: > 1000 nM

Q: And the IC50 (MDA-MB-231)?
A: 420 nM

Q: For `O=C(CCCCCCCNC(=O)c1cc2c(-c3ccncc3)cccc2s1)NO`, which IC50 (MDA-MB-231) is on record?
A: > 10000 nM

Q: Which IC50 [1] does the source give for `COc1cccc(CNC(=O)c2cc3c(-c4cccc5cnccc45)cccc3s2)c1` here?
A: > 1000 nM

Q: How did the IC50 (MDA-MB-231) turn out when `O=C(CCCCCNC(=O)c1cc2cccc(-c3ccncc3)c2s1)NO` was run?
A: > 10000 nM

Q: With `O=C(CCCCCCNC(=O)c1cc2c(-c3cn[nH]c3)cccc2s1)NO` as the molecule, how does the IC50 (MDA-MB-231) read?
A: > 10000 nM

Q: How did the IC50 [1] turn out when `COc1cccc(CNC(=O)c2cc3cc(-c4ccncc4)ccc3s2)c1` was run?
A: > 1000 nM

Q: How did the IC50 [1] turn out when `COc1cccc(CNC(=O)c2cc3ccc(-c4cn[nH]c4)cc3s2)c1` was run?
A: 7.94 nM

Q: And the “inhibition (active/inactive call)” value [2]?
A: Active

Q: With `COc1cccc(CNC(=O)c2cc3cccc(-c4cccc5cnccc45)c3s2)c1` as the molecule, how does the IC50 [1] read?
A: > 1000 nM

Q: For `COc1cccc(CNC(=O)c2cc3cc(-c4ccc5[nH]ncc5c4)ccc3s2)c1`, which IC50 [1] is on record?
A: > 1000 nM

Q: What does the source list for `C[C@@H](N)[C@H]1CC[C@H](C(=O)Nc2ccncc2)CC1` [Y-27632]?
A: IC50 (MDA-MB-231): > 10000 nM; IC50 (4T1 [3]): > 10000 nM

Q: How did the IC50 [1] turn out when `COc1cccc(CNC(=O)c2cc3cccc(-c4ccncc4)c3s2)c1` was run?
A: > 1000 nM

Q: For `O=C(CCCCCCCNC(=O)c1cc2cccc(-c3ccncc3)c2s1)NO`, which IC50 (MDA-MB-231) is on record?
A: > 10000 nM

Q: How did the IC50 (MDA-MB-231) turn out when `O=C(CCCCCCNC(=O)c1cc2ccc(-c3ccncc3)cc2s1)NO` was run?
A: 950 nM

Q: `COc1cccc(CNC(=O)c2cc3ccc(-c4cccc5cnccc45)cc3s2)c1` was tested. Which IC50 [1] did it give?
A: > 1000 nM

Q: How did the IC50 [1] turn out when `COc1cccc(CN(CCN(C)C)C(=O)c2nc3ccc(-c4cn[nH]c4)cc3s2)c1` was run?
A: < 1 nM

Q: For `O=C(CCCCCCCNC(=O)c1cc2cc(-c3cn[nH]c3)ccc2s1)NO`, which IC50 (MDA-MB-231) is on record?
A: 6420 nM

Q: With `O=C(CCCCCNC(=O)c1cc2cc(-c3cn[nH]c3)ccc2s1)NO` as the molecule, how does the IC50 (MDA-MB-231) read?
A: > 10000 nM

Q: How did the IC50 (MDA-MB-231) turn out when `O=C(CCCCCNC(=O)c1cc2ccc(-c3cn[nH]c3)cc2s1)NO` was run?
A: > 10000 nM

Q: `O=C(CCCCCNC(=O)c1cc2c(-c3cn[nH]c3)cccc2s1)NO` was tested. Which IC50 (MDA-MB-231) did it give?
A: 3210 nM

Q: For `COc1cccc(CNC(=O)c2cc3c(-c4cn[nH]c4)cccc3s2)c1`, which IC50 [1] is on record?
A: > 1000 nM

Q: For `O=C(CCCCCCCNC(=O)c1cc2ccc(-c3cn[nH]c3)cc2s1)NO`, which IC50 (MDA-MB-231) is on record?
A: 760 nM

Q: `COc1cccc(CNC(=O)c2cc3cccc(-c4ccc5[nH]ncc5c4)c3s2)c1` was tested. Which IC50 [1] did it give?
A: > 1000 nM

Q: With `O=C(CCCCCCNC(=O)c1cc2c(-c3ccncc3)cccc2s1)NO` as the molecule, how does the IC50 (MDA-MB-231) read?
A: 2900 nM

Q: How did the IC50 (MDA-MB-231) turn out when `O=C(CCCCCNC(=O)c1cc2cc(-c3ccncc3)ccc2s1)NO` was run?
A: > 10000 nM

Q: With `O=C(CCCCCCNC(=O)c1cc2cccc(-c3cn[nH]c3)c2s1)NO` as the molecule, how does the IC50 (MDA-MB-231) read?
A: 9050 nM

Q: `COc1cccc(CNC(=O)c2cc3c(-c4ccc5[nH]ncc5c4)cccc3s2)c1` was tested. Which IC50 [1] did it give?
A: > 1000 nM

Q: `O=C(CCCCCNC(=O)c1cc2cccc(-c3cn[nH]c3)c2s1)NO` was tested. Which IC50 (MDA-MB-231) did it give?
A: > 10000 nM

Q: Which IC50 (MDA-MB-231) does the source give for `O=C(CCCCCNC(=O)c1cc2c(-c3ccncc3)cccc2s1)NO` here?
A: > 10000 nM

Q: For `COc1cccc(CNC(=O)c2cc3cccc(-c4cn[nH]c4)c3s2)c1`, which IC50 [1] is on record?
A: 225 nM

Q: What about the “inhibition (active/inactive call)” value [2] of the same molecule?
A: Active

Q: With `O=C(CCCCCCCNC(=O)c1cc2ccc(-c3ccncc3)cc2s1)NO` as the molecule, how does the IC50 [1] read?
A: > 1000 nM

Q: And the IC50 [2]?
A: > 1000 nM

Q: What about the IC50 (MDA-MB-231) of the same molecule?
A: 460 nM

Q: With `O=C(CCCCCCNC(=O)c1cc2ccc(-c3cn[nH]c3)cc2s1)NO` as the molecule, how does the IC50 (MDA-MB-231) read?
A: 1260 nM

Q: How did the IC50 [1] turn out when `COc1cccc(CNC(=O)c2cc3ccc(-c4ccncc4)cc3s2)c1` was run?
A: 296 nM

Q: And the “inhibition (active/inactive call)” value [2]?
A: Active

Q: Which IC50 (MDA-MB-231) does the source give for `O=C(CCCCCCC(=O)Nc1ccccc1)NO` [VORINOSTAT] here?
A: 660 nM

Q: What about the Activity (4T1 [4]) of the same molecule?
A: Active

Q: What about the Activity (4T1 [5]) of the same molecule?
A: Active

Q: And the Activity (4T1 [6])?
A: Active

Q: For `CN[C@@H]1C[C@H](c2ccc3c(c2O)C(=O)c2c(C)sc(C(C)=O)c2C3=O)O[C@H](C)[C@H]1O`, which IC50 [1] is on record?
A: 8890 nM

Q: Which IC50 (MDA-MB-231) does the source give for `O=C(CCCCCCCNC(=O)c1cc2c(-c3cn[nH]c3)cccc2s1)NO` here?
A: > 10000 nM

Q: Which IC50 (MDA-MB-231) does the source give for `O=C(CCCCCNC(=O)c1cc2ccc(-c3ccncc3)cc2s1)NO` here?
A: > 10000 nM

Q: With `COc1cccc(CNC(=O)c2cc3ccc(-c4ccc5[nH]ncc5c4)cc3s2)c1` as the molecule, how does the IC50 [1] read?
A: > 1000 nM

Q: Which IC50 [1] does the source give for `COc1cccc(CNC(=O)c2cc3c(-c4ccncc4)cccc3s2)c1` here?
A: > 1000 nM

Q: `O=C(CCCCCCNC(=O)c1cc2cccc(-c3ccncc3)c2s1)NO` was tested. Which IC50 (MDA-MB-231) did it give?
A: 1540 nM

Q: Which results are given for `COc1cccc(CNC(=O)c2cc3cc(-c4cn[nH]c4)ccc3s2)c1`?
A: IC50 [1]: 6.75 nM; inhibition (active/inactive call) [2]: Active

Q: How did the IC50 (MDA-MB-231) turn out when `O=C(CCCCCCCNC(=O)c1cc2cccc(-c3cn[nH]c3)c2s1)NO` was run?
A: > 10000 nM
